Data on 2 compounds can be found in patent US5739385A, “Process for preparing optically active carboxylic acids” (Union Carbide Chemicals & Plastics Technology Corporation, priority 1995, dated 1998).

For series [1] the following is noted: background, in words; cited from earlier work.
Series [2] in a line: Naproxen aldehyde solubility in acetone (visual cloud point / clear point). The format is physicochemical. The text has this: Solubility data for solids in acetone solvent were obtained by visually obtaining a "cloud" point for a solution of known composition by slowly cooling the solution. After obtaining a "cloud" point the solution was slowly heated until a "dear" point was observed. The "clear" point represents the saturation temperature of the solution and the "cloud" point the temperature at which massive spontaneous nucleation occurs.
Naproxen aldehydes [i.e., R- and S-2-(6-methoxy-2-naphthyl)propionaldehyde]are very soluble in acetone.

On to `COc1ccc2cc([C@H](C)C(=O)O)ccc2c1` [S enantiomer, S-2-(6-methoxy-2-naphthyl)propionic acid], for which, in series [1], the anti-arthritic activity entry is listed as “potent anti-arthritic agent”.
For the compound `COc1ccc2cc(C(C)C=O)ccc2c1` (racemic) [Naproxen Aldehyde, R- and S-2-(6-methoxy-2-naphthyl)propionaldehyde], the solubility in acetone result in series [2] (in words) is “very soluble”. Besides, the “temperature dependence of solubility” value in series [2] (in words) was “very sensitive to temperature”. Moreover, the “Cloud Point” value in series [2] (solids 22.0 wt %, solids/liquid ratio 0.28, massive spontaneous nucleation temperature) was -15 °C; in series [2] (solids 29.0 wt %, solids/liquid ratio 0.41, massive spontaneous nucleation temperature), -17 °C; in series [2] (solids 30.0 wt %, solids/liquid ratio 0.43, massive spontaneous nucleation temperature), -6 °C; in series [2] (solids 35.3 wt %, solids/liquid ratio 0.55, massive spontaneous nucleation temperature), -9 °C; in series [2] (solids 47.0 wt %, solids/liquid ratio 0.89, massive spontaneous nucleation temperature), 5 °C. For the same compound, the “Clear Point” value in series [2] (solids 22.0 wt %, solids/liquid ratio 0.28, saturation temperature) is 1 °C; in series [2] (solids 29.0 wt %, solids/liquid ratio 0.41, saturation temperature), 6 °C; in series [2] (solids 30.0 wt %, solids/liquid ratio 0.43, saturation temperature) it was 11 °C; in series [2] (solids 35.3 wt %, solids/liquid ratio 0.55, saturation temperature), 15 °C; in series [2] (solids 47.0 wt %, solids/liquid ratio 0.89, saturation temperature), 25 °C.
